Laboratory results taken from patent US20250000865A1, “COMPOUND FOR REDUCING URIC ACID LEVELS” (NEWSOARA BIOPHARMA CO., LTD., priority 2021, published 2025).

System: healthy subjects
Assay: Phase I clinical trial, single-dose groups: uric acid index before and after treatment
Assay type: in vivo, human
Conditions: for Uric acid (UA) Mean / Uric acid (UA) Median / Uric acid (UA) Minimum value / Uric acid (UA) maximum value / Uric acid (UA) Changes over baseline at last visit (on day 6), Mean / Uric acid (UA) Changes over baseline at last visit (on day 6), Median / Uric acid (UA) Changes over baseline at last visit (on day 6), Minimum value / Uric acid (UA) Changes over baseline at last visit (on day 6), maximum value / Uric acid (UA) Changes over baseline on day 2, Mean / Uric acid (UA) Changes over baseline on day 2, Median / Uric acid (UA) Changes over baseline on day 2, Minimum value / Uric acid (UA) Changes over baseline on day 2, maximum value / Uric acid (UA) Changes over baseline on day 4, Mean / Uric acid (UA) Changes over baseline on day 4, Median / Uric acid (UA) Changes over baseline on day 4, Minimum value / Uric acid (UA) Changes over baseline on day 4, maximum value: N = 9
Description: The changes of uric acid levels in subjects in single-dose and multi-dose groups of Compound I are shown in FIG. 1A (single dose of 6 mg and single dose of 10 mg), FIG. 1B (single dose of 20 mg and single dose of 30 mg), and FIG. 2 (multi-dose of 10 mg and multi-dose of 20 mg). The corresponding results are also shown in Tables 1.1, 1.2, 1.3, and 2.1, and tables 2.2, 2.3, and 2.4.

[1] = Last visit (day 6), single dose 6 mg
[2] = Last visit (day 6), single dose 10 mg
[3] = Last visit (day 6), single dose 20 mg
[4] = Last visit (day 6), single dose 30 mg

COc1cccc2c1ncc1c(=O)n(C3CCC(C(=O)O)CC3)c(=O)n(-c3cccc(Cl)c3)c12 (stereo not shown) [Compound I, 4-[1-(3-chlorophenyl)-7-methoxy-2,4-dioxo-pyrimido[5,4-c]quinolin-3-yl]cyclohexanecarboxylic acid]
Uric acid (UA) Mean (Baseline, single dose 6 mg): 315.9 µmol/L
Uric acid (UA) Median (Baseline, single dose 6 mg): 319.0 µmol/L
Uric acid (UA) Minimum value (Baseline, single dose 6 mg): 185 µmol/L
Uric acid (UA) maximum value (Baseline, single dose 6 mg): 429 µmol/L
Uric acid (UA) Mean (Baseline, single dose 10 mg): 335.2 µmol/L
Uric acid (UA) Median (Baseline, single dose 10 mg): 330.0 µmol/L
Uric acid (UA) Minimum value (Baseline, single dose 10 mg): 224 µmol/L
Uric acid (UA) maximum value (Baseline, single dose 10 mg): 446 µmol/L
Uric acid (UA) Mean (Baseline, single dose 20 mg): 326.0 µmol/L
Uric acid (UA) Median (Baseline, single dose 20 mg): 320.0 µmol/L
Uric acid (UA) Minimum value (Baseline, single dose 20 mg): 256 µmol/L
Uric acid (UA) maximum value (Baseline, single dose 20 mg): 436 µmol/L
Uric acid (UA) Mean (Baseline, single dose 30 mg): 300.9 µmol/L
Uric acid (UA) Median (Baseline, single dose 30 mg): 277.0 µmol/L
Uric acid (UA) Minimum value (Baseline, single dose 30 mg): 209 µmol/L
Uric acid (UA) maximum value (Baseline, single dose 30 mg): 401 µmol/L
Uric acid (UA) Mean (Day 2, single dose 6 mg): 272.9 µmol/L
Uric acid (UA) Median (Day 2, single dose 6 mg): 272.0 µmol/L
Uric acid (UA) Minimum value (Day 2, single dose 6 mg): 160 µmol/L
Uric acid (UA) maximum value (Day 2, single dose 6 mg): 347 µmol/L
Uric acid (UA) Mean (Day 2, single dose 10 mg): 266.1 µmol/L
Uric acid (UA) Median (Day 2, single dose 10 mg): 254.0 µmol/L
Uric acid (UA) Minimum value (Day 2, single dose 10 mg): 161 µmol/L
Uric acid (UA) maximum value (Day 2, single dose 10 mg): 447 µmol/L
Uric acid (UA) Mean (Day 2, single dose 20 mg): 194.9 µmol/L
Uric acid (UA) Median (Day 2, single dose 20 mg): 209.0 µmol/L
Uric acid (UA) Minimum value (Day 2, single dose 20 mg): 105 µmol/L
Uric acid (UA) maximum value (Day 2, single dose 20 mg): 251 µmol/L
Uric acid (UA) Mean (Day 2, single dose 30 mg): 135.8 µmol/L
Uric acid (UA) Median (Day 2, single dose 30 mg): 144.0 µmol/L
Uric acid (UA) Minimum value (Day 2, single dose 30 mg): 60 µmol/L
Uric acid (UA) maximum value (Day 2, single dose 30 mg): 178 µmol/L
Uric acid (UA) Mean (Day 4, single dose 6 mg): 285.9 µmol/L
Uric acid (UA) Median (Day 4, single dose 6 mg): 300.0 µmol/L
Uric acid (UA) Minimum value (Day 4, single dose 6 mg): 193 µmol/L
Uric acid (UA) maximum value (Day 4, single dose 6 mg): 378 µmol/L
Uric acid (UA) Mean (Day 4, single dose 10 mg): 302.8 µmol/L
Uric acid (UA) Median (Day 4, single dose 10 mg): 304.0 µmol/L
Uric acid (UA) Minimum value (Day 4, single dose 10 mg): 199 µmol/L
Uric acid (UA) maximum value (Day 4, single dose 10 mg): 462 µmol/L
Uric acid (UA) Mean (Day 4, single dose 20 mg): 277.7 µmol/L
Uric acid (UA) Median (Day 4, single dose 20 mg): 279.0 µmol/L
Uric acid (UA) Minimum value (Day 4, single dose 20 mg): 179 µmol/L
Uric acid (UA) maximum value (Day 4, single dose 20 mg): 340 µmol/L
Uric acid (UA) Mean (Day 4, single dose 30 mg): 217.9 µmol/L
Uric acid (UA) Median (Day 4, single dose 30 mg): 232.0 µmol/L
Uric acid (UA) Minimum value (Day 4, single dose 30 mg): 140 µmol/L
Uric acid (UA) maximum value (Day 4, single dose 30 mg): 266 µmol/L
Uric acid (UA) Mean [1]: 327.2 µmol/L
Uric acid (UA) Median [1]: 341.0 µmol/L
Uric acid (UA) Minimum value [1]: 227 µmol/L
Uric acid (UA) maximum value [1]: 431 µmol/L
Uric acid (UA) Mean [2]: 357.3 µmol/L
Uric acid (UA) Median [2]: 367.0 µmol/L
Uric acid (UA) Minimum value [2]: 243 µmol/L
Uric acid (UA) maximum value [2]: 508 µmol/L
Uric acid (UA) Mean [3]: 341.1 µmol/L
Uric acid (UA) Median [3]: 358.0 µmol/L
Uric acid (UA) Minimum value [3]: 237 µmol/L
Uric acid (UA) maximum value [3]: 414 µmol/L
Uric acid (UA) Mean [4]: 287.4 µmol/L
Uric acid (UA) Median [4]: 283.0 µmol/L
Uric acid (UA) Minimum value [4]: 207 µmol/L
Uric acid (UA) maximum value [4]: 364 µmol/L
Uric acid (UA) Changes over baseline at last visit (on day 6), Mean (single dose 6 mg): 11.3 µmol/L
Uric acid (UA) Changes over baseline at last visit (on day 6), Median (single dose 6 mg): 22.0 µmol/L
Uric acid (UA) Changes over baseline at last visit (on day 6), Minimum value (single dose 6 mg): -48 µmol/L
Uric acid (UA) Changes over baseline at last visit (on day 6), maximum value (single dose 6 mg): 52 µmol/L
Uric acid (UA) Changes over baseline on day 2, Mean (single dose 6 mg): -43.0 µmol/L
Uric acid (UA) Changes over baseline on day 2, Median (single dose 6 mg): -32.0 µmol/L
Uric acid (UA) Changes over baseline on day 2, Minimum value (single dose 6 mg): -112 µmol/L
Uric acid (UA) Changes over baseline on day 2, maximum value (single dose 6 mg): 42 µmol/L
Uric acid (UA) Changes over baseline on day 4, Mean (single dose 6 mg): -30.0 µmol/L
Uric acid (UA) Changes over baseline on day 4, Median (single dose 6 mg): -18.0 µmol/L
Uric acid (UA) Changes over baseline on day 4, Minimum value (single dose 6 mg): -86 µmol/L
Uric acid (UA) Changes over baseline on day 4, maximum value (single dose 6 mg): 31 µmol/L
Uric acid (UA) Changes over baseline at last visit (on day 6), Mean (single dose 10 mg): 22.1 µmol/L
Uric acid (UA) Changes over baseline at last visit (on day 6), Median (single dose 10 mg): 19.0 µmol/L
Uric acid (UA) Changes over baseline at last visit (on day 6), Minimum value (single dose 10 mg): -27 µmol/L
Uric acid (UA) Changes over baseline at last visit (on day 6), maximum value (single dose 10 mg): 88 µmol/L
Uric acid (UA) Changes over baseline on day 2, Mean (single dose 10 mg): -69.1 µmol/L
Uric acid (UA) Changes over baseline on day 2, Median (single dose 10 mg): -70.0 µmol/L
Uric acid (UA) Changes over baseline on day 2, Minimum value (single dose 10 mg): -133 µmol/L
Uric acid (UA) Changes over baseline on day 2, maximum value (single dose 10 mg): 1 µmol/L
Uric acid (UA) Changes over baseline on day 4, Mean (single dose 10 mg): -32.4 µmol/L
Uric acid (UA) Changes over baseline on day 4, Median (single dose 10 mg): -29.0 µmol/L
Uric acid (UA) Changes over baseline on day 4, Minimum value (single dose 10 mg): -92 µmol/L
Uric acid (UA) Changes over baseline on day 4, maximum value (single dose 10 mg): 23 µmol/L
Uric acid (UA) Changes over baseline at last visit (on day 6), Mean (single dose 20 mg): 15.1 µmol/L
Uric acid (UA) Changes over baseline at last visit (on day 6), Median (single dose 20 mg): 9.0 µmol/L
Uric acid (UA) Changes over baseline at last visit (on day 6), Minimum value (single dose 20 mg): -34 µmol/L
Uric acid (UA) Changes over baseline at last visit (on day 6), maximum value (single dose 20 mg): 122 µmol/L
Uric acid (UA) Changes over baseline on day 2, Mean (single dose 20 mg): -131.1 µmol/L
Uric acid (UA) Changes over baseline on day 2, Median (single dose 20 mg): -130.0 µmol/L
Uric acid (UA) Changes over baseline on day 2, Minimum value (single dose 20 mg): -211 µmol/L
Uric acid (UA) Changes over baseline on day 2, maximum value (single dose 20 mg): -42 µmol/L
Uric acid (UA) Changes over baseline on day 4, Mean (single dose 20 mg): -48.3 µmol/L
Uric acid (UA) Changes over baseline on day 4, Median (single dose 20 mg): -62.0 µmol/L
Uric acid (UA) Changes over baseline on day 4, Minimum value (single dose 20 mg): -106 µmol/L
Uric acid (UA) Changes over baseline on day 4, maximum value (single dose 20 mg): 50 µmol/L
Uric acid (UA) Changes over baseline at last visit (on day 6), Mean (single dose 30 mg): -13.4 µmol/L
Uric acid (UA) Changes over baseline at last visit (on day 6), Median (single dose 30 mg): -20.0 µmol/L
Uric acid (UA) Changes over baseline at last visit (on day 6), Minimum value (single dose 30 mg): -75 µmol/L
Uric acid (UA) Changes over baseline at last visit (on day 6), maximum value (single dose 30 mg): 58 µmol/L
Uric acid (UA) Changes over baseline on day 2, Mean (single dose 30 mg): -165.1 µmol/L
Uric acid (UA) Changes over baseline on day 2, Median (single dose 30 mg): -152.0 µmol/L
Uric acid (UA) Changes over baseline on day 2, Minimum value (single dose 30 mg): -261 µmol/L
Uric acid (UA) Changes over baseline on day 2, maximum value (single dose 30 mg): -79 µmol/L
Uric acid (UA) Changes over baseline on day 4, Mean (single dose 30 mg): -83.0 µmol/L
Uric acid (UA) Changes over baseline on day 4, Median (single dose 30 mg): -69.0 µmol/L
Uric acid (UA) Changes over baseline on day 4, Minimum value (single dose 30 mg): -162 µmol/L
Uric acid (UA) Changes over baseline on day 4, maximum value (single dose 30 mg): -3 µmol/L
uric acid level in the subjects, overall clinical trial result (single-dose and multi-dose groups, p<0.05): reduces the uric acid level in the subjects significantly
uric acid level on the following days (days 4 and 6) (single-dose groups): gradually recovered
uric acid level the next day after administration (single-dose groups, certain dose dependence): decreases obviously
